Read-outs that look alike come from different tables or passages of the source.
How the values were obtained:
human μ-opioid receptor = biological target: T1, human μ-opioid receptor (Homo sapiens, UniProt P35372); assay: Human μ-opioid receptor radioligand assay ([3H]-DAMGO); type: binding
T1 construct: expressed in transfected cells; host or cells: CHO-K1
Procedure: Human μ-Opioid Receptor Radioligand Assay
To investigate binding properties of test compounds to human μ-opioid receptor, transfected CHO-K1 cell membranes and [^3H]-DAMGO (Perkin Elmer, ES-542-C), as the radioligand, were used. The assay was carried out with 20 μg of membrane suspension, 1 nM of [^3H]-DAMGO in either absence or presence of either buffer or 10 μM Naloxone for total and non-specific binding, respectively. Binding buffer contained Tris-HCl 50 mM, MgCl2 5 mM at pH 7.4. Plates were incubated at 27° C. for 60 minutes. After the incubation period, the reaction mix was then transferred to MultiScreen HTS, FC plates (Millipore), filtered and plates were washed 3 times with ice-cold 10 mM Tris-HCL (pH 7.4). Filters were dried and counted at approximately 40% efficiency in a MicroBeta scintillation counter (Perkin-Elmer) using EcoScint liquid scintillation cocktail, preferably, transfected CHO-K1 cell membranes (20 μg) were incubated with 1 nM of [^3H]-DAMGO in assay buffer containing Tris-HCl 50 mM, MgCl2 5 mM at pH 7.4. NBS (non-specific binding) was measured by adding 10 μM Naloxone. The binding of the test compound was measured at five different concentrations. Plates were incubated at 27° C. for 60 minutes. After the incubation period, the reaction mix was then transferred to MultiScreen HTS, FC plates (Millipore), filtered and plates were washed 3 times with ice-cold 10 mM Tris-HCL (pH 7.4). Filters were dried and counted at approximately 40% efficiency in a MicroBeta scintillation counter (Perkin-Elmer) using EcoScint liquid scintillation cocktail.

[1] = biological target: Human α2δ-1 subunit of Cav2.2 calcium channel (Homo sapiens, UniProt P54289); assay: Human α2δ-1 subunit of Cav2.2 calcium channel assay ([3H]-Gabapentin); type: binding
Procedure: Human α2δ-1 Subunit of Cav2.2 Calcium Channel Assay
Human α2δ-1 enriched membranes (2.5 μg) were incubated with 15 nM of radiolabeled [3H]-Gabapentin in assay buffer containing Hepes-KOH 10 mM, pH 7.4. NSB (non specific binding) was measured by adding 10 μM pregabalin. After 60 min incubation at 27° C., binding reaction was terminated by filtering through Multiscreen GF/C (Millipore) presoaked in 0.5% polyethyleneimine in Vacuum Manifold Station, followed by 3 washes with ice-cold filtration buffer containing 50 mM Tris-HCl, pH 7.4. Filter plates were dried at 60° C. for 1 hour and 30 μl of scintillation cocktail were added to each well before radioactivity reading. Readings were performed in a Trilux 1450 Microbeta radioactive counter (Perkin Elmer), i.e. Human α2δ-1 enriched membranes (2.5 μg) were incubated with 15 nM of radiolabeled [3H]-Gabapentin in assay buffer containing Hepes-KOH 10 mM, pH 7.4. NSB (non specific binding) was measured by adding 10 μM pregabalin. The binding of the test compound was measured at five different concentrations. After 60 min incubation at 27° C., binding reaction was terminated by filtering through Multiscreen GF/C (Millipore) presoaked in 0.5% polyethyleneimine in Vacuum Manifold Station, followed by 3 washes with ice-cold filtration buffer containing 50 mM Tris-HCl, pH 7.4. Filter plates were dried at 60° C. for 1 hour and 30 μl of scintillation cocktail were added to each well before radioactivity reading. Readings were performed in a Trilux 1450 Microbeta radioactive counter (Perkin Elmer).

[2] = transfected CHO-K1 cell membranes, 1 nM [3H]-DAMGO, read-out: Binding μ (Ki)
[3] = human α2δ-1 enriched membranes, 15 nM [3H]-Gabapentin, read-out: Binding α2δ-1 (Ki)

T1 sequence (P35372 whole entry): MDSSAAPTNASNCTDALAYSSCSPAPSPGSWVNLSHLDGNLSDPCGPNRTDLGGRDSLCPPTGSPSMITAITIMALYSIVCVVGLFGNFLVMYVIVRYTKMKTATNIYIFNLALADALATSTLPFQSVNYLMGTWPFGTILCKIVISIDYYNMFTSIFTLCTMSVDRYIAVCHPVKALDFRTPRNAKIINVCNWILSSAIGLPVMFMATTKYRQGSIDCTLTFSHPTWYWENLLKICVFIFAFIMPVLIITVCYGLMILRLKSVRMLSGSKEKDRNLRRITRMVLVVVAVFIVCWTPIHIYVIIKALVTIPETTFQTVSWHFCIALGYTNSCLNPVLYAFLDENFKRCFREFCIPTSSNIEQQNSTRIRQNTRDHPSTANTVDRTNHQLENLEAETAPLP
Chain of Human α2δ-1 subunit of Cav2.2 calcium channel (P54289 25-1103): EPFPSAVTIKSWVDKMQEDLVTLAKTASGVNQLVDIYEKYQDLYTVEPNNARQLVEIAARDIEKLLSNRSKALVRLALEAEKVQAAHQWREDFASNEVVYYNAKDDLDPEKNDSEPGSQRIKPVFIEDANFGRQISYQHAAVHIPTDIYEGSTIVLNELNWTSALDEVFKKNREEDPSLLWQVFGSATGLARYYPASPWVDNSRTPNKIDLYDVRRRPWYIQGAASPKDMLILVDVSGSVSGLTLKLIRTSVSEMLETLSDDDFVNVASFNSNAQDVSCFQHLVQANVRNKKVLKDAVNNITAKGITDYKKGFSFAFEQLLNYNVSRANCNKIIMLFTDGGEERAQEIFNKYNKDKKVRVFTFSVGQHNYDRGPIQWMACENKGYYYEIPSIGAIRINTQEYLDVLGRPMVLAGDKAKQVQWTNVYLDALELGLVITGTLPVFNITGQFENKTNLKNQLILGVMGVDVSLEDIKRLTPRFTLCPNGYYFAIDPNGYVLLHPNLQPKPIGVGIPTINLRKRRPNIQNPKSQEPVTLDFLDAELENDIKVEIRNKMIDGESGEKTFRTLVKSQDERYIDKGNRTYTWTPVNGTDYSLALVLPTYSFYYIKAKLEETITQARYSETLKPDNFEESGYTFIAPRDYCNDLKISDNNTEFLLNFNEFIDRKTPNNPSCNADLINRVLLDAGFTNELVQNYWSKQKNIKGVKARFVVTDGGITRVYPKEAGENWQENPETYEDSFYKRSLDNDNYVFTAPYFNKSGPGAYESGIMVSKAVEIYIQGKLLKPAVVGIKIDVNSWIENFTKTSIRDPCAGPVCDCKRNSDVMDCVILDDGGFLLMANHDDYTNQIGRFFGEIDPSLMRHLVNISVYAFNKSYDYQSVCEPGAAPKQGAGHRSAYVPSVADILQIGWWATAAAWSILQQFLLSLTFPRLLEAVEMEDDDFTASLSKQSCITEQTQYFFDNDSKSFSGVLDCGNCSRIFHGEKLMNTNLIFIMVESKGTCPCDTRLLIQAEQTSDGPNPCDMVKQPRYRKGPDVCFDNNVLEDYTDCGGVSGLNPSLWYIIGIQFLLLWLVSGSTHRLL

| SMILES | Ki (human μ-opioid receptor; [2]) [nM] | Ki [1, 3] [nM] | Ki (human μ-opioid receptor) [nM] | Ki [1] [nM] |
| --- | --- | --- | --- | --- |
| CCNCC[C@@H](Oc1ccccc1-n1nc2c(N(C)C)nnc(C)c2c1C)c1ccccc1 [Example 101, (R)-2-(2-(3-(Ethylamino)-1-phenylpropoxy)phenyl)-N,N,3,4-tetramethyl-2H-pyrazolo[3,4-d]pyridazin-7-amine] |  |  | 100 to 500 | 500 to 5000 |
| CNCC[C@H](Oc1ccccc1-n1nc2c(N(C)C)nnc(C)c2c1C)c1cccc(F)c1 [Example 103, (S)-2-(2-(1-(3-Fluorophenyl)-3-(methylamino)propoxy)phenyl)-N,N,3,4-tetramethyl-2H-pyrazolo[3,4-d]pyridazin-7-amine] |  |  | > 500 | < 500 |
| CCOc1ccc(-n2nc3c(N(C)C)nnc(C)c3c2C)c(OC(CCNC)c2ccccc2)c1 (stereo not shown) [Example 87, 2-(4-Ethoxy-2-(3-(methylamino)-1-phenylpropoxy)phenyl)-N,N,3,4-tetramethyl-2H-pyrazolo[3,4-d]pyridazin-7-amine] |  |  | > 500 | < 500 |
| Cc1nnc(N(C)C)c2nn(-c3ccccc3OCC3CCNCC3)c(C)c12 [Example 3, N,N,3,4-tetramethyl-2-(2-(piperidin-4-ylmethoxy)phenyl)-2H-pyrazolo[3,4-d]pyridazin-7-amine] | > 500 | > 5000 |  |  |
| Cc1nnc(N(C)C)c2nn(-c3ccccc3OC(CCN(C)C)c3ccccc3)c(C)c12 (stereo not shown) [Example 52, 2-(2-(3-(Dimethylamino)-1-phenylpropoxy)phenyl)-N,N,3,4-tetramethyl-2H-pyrazolo[3,4-d]pyridazin-7-amine] |  |  | 100 to 500 | 500 to 5000 |
| CNCCC(Oc1cc(NC(C)=O)ccc1-n1nc2c(N(C)C)nnc(C)c2c1C)c1ccccc1 (stereo not shown) [Example 82, N-(4-(7-(dimethylamino)-3,4-dimethyl-2H-pyrazolo[3,4-d]pyridazin-2-yl)-3-(3-(methylamino)-1-phenylpropoxy)phenyl)acetamide] | > 500 | 500 to 5000 |  |  |
| Cc1nnc(N(C)C)c2nn(-c3ccccc3OC3CNCc4ccccc43)c(C)c12 (stereo not shown) [Example 32, N,N,3,4-tetramethyl-2-(2-((1,2,3,4-tetrahydroisoquinolin-4-yl)oxy)phenyl)-2H-pyrazolo[3,4-d]pyridazin-7-amine] | > 500 | 500 to 5000 |  |  |
| CNCCC(Oc1ccccc1-n1nc2c(N(C)C)nnc(C)c2c1C)c1ccccn1 (stereo not shown) [Example 18, N,N,3,4-tetramethyl-2-(2-(3-(methylamino)-1-(pyridin-2-yl)propoxy)phenyl)-2H-pyrazolo[3,4-d]pyridazin-7-amine] | > 500 | 500 to 5000 |  |  |
| CNCCC(Oc1cc(Br)ccc1-n1nc2c(N(C)C)nnc(C)c2c1C)c1ccccc1 (stereo not shown) [Example 25, 2-(4-bromo-2-(3-(methylamino)-1-phenylpropoxy)phenyl)-N,N,3,4-tetramethyl-2H-pyrazolo[3,4-d]pyridazin-7-amine] | > 500 | 500 to 5000 |  |  |
| CNCCC(Oc1cc(C(=O)N(C)C)ccc1-n1nc2c(N(C)C)nnc(C)c2c1C)c1ccccc1 (stereo not shown) [Example 95] | > 500 | 500 to 5000 |  |  |
| CNCCC(Oc1ccccc1-n1nc2c(N(C)C)nnc(C)c2c1C)C1CCOCC1 (stereo not shown) [Example 16, N,N,3,4-tetramethyl-2-(2-(3-(methylamino)-1-(tetrahydro-2H-pyran-4-yl)propoxy)phenyl)-2H-pyrazolo[3,4-d]pyridazin-7-amine] | > 500 | > 5000 |  |  |
| CNCCC(Oc1ccccc1-n1cc2cnnc(N(C)C)c2n1)c1ccccc1 (stereo not shown) [Example 71, N,N-dimethyl-2-(2-(3-(methylamino)-1-phenylpropoxy)phenyl)-2H-pyrazolo[3,4-d]pyridazin-7-amine] | > 500 | 500 to 5000 |  |  |
| Cc1nnc(N(C)C)c2nn(-c3ccccc3OCCC(N)c3ccccc3)c(C)c12 (stereo not shown) [Example 22, 2-(2-(3-amino-3-phenylpropoxy)phenyl)-N,N,3,4-tetramethyl-2H-pyrazolo[3,4-d]pyridazin-7-amine] | > 500 | 500 to 5000 |  |  |
| Cc1nnc(N(C)C)c2nn(-c3ccccc3OC(CCNC3CC3)c3ccccc3)c(C)c12 (stereo not shown) [Example 27, 2-(2-(3-(cyclopropylamino)-1-phenylpropoxy)phenyl)-N,N,3,4-tetramethyl-2H-pyrazolo[3,4-d]pyridazin-7-amine] |  |  | 100 to 500 | 500 to 5000 |

More lines, main results first:

| Ki (human μ-opioid receptor; [2]) [nM] | Ki [1, 3] [nM] | SMILES | Ki (human μ-opioid receptor) [nM] | Ki [1] [nM] |
| --- | --- | --- | --- | --- |
| > 500 | 500 to 5000 | CNCCCOc1ccccc1-n1nc2c(N(C)C)nnc(C)c2c1C [Example 4, N,N,3,4-tetramethyl-2-(2-(3-(methylamino)propoxy)phenyl)-2H-pyrazolo[3,4-d]pyridazin-7-amine] |  |  |
| > 500 | 500 to 5000 | COCCNCCC(Oc1ccccc1-n1nc2c(N(C)C)nnc(C)c2c1C)c1ccccc1 (stereo not shown) [Example 26, 2-(2-(3-((2-methoxyethyl)amino)-1-phenylpropoxy)phenyl)-N,N,3,4-tetramethyl-2H-pyrazolo[3,4-d]pyridazin-7-amine] |  |  |
| > 500 | 500 to 5000 | CNCCC(Oc1ccccc1-n1nc2c(N3CCOCC3)nnc(C)c2c1C)c1ccccc1 (stereo not shown) [Example 23, 3-(2-(3,4-dimethyl-7-morpholino-2H-pyrazolo[3,4-d]pyridazin-2-yl)phenoxy)-N-methyl-3-phenylpropan-1-amine] |  |  |
| > 500 | > 5000 | CNCCC(Oc1ccc(C(N)=O)cc1-n1nc2c(N(C)C)nnc(C)c2c1C)c1ccccc1 (stereo not shown) [Example 93, 3-(7-(dimethylamino)-3,4-dimethyl-2H-pyrazolo[3,4-d]pyridazin-2-yl)-4-(3-(methylamino)-1-phenylpropoxy)benzamide] |  |  |
| > 500 | 500 to 5000 | CNCCC(Oc1ccc(NC(C)=O)cc1-n1nc2c(N(C)C)nnc(C)c2c1C)c1ccccc1 (stereo not shown) [Example 83, N-(3-(7-(dimethylamino)-3,4-dimethyl-2H-pyrazolo[3,4-d]pyridazin-2-yl)-4-(3-(methylamino)-1-phenylpropoxy)phenyl)acetamide] |  |  |
| > 500 | 500 to 5000 | Cc1nnc(N(C)C)c2nn(-c3ccccc3OCC3CCCNC3)c(C)c12 (stereo not shown) [Example 5, N,N,3,4-tetramethyl-2-(2-(piperidin-3-ylmethoxy)phenyl)-2H-pyrazolo[3,4-d]pyridazin-7-amine] |  |  |
| > 500 | > 5000 | Cc1nnc(N(C)C)c2nn(-c3ccccc3OC3CCNC3)c(C)c12 (stereo not shown) [Example 50, N,N,3,4-Tetramethyl-2-(2-(pyrrolidin-3-yloxy)phenyl)-2H-pyrazolo[3,4-d]pyridazin-7-amine] |  |  |
| > 500 | 500 to 5000 | CNCCC(Oc1cc(N2CCCC2=O)ccc1-n1nc2c(N(C)C)nnc(C)c2c1C)c1ccccc1 (stereo not shown) [Example 80, 1-(4-(7-(Dimethylamino)-3,4-dimethyl-2H-pyrazolo[3,4-d]pyridazin-2-yl)-3-(3-(methylamino)-1-phenylpropoxy)phenyl)pyrrolidin-2-one] |  |  |
| > 500 | > 5000 | CNCCC(Oc1ccc(N2CCCC2=O)cc1-n1nc2c(N(C)C)nnc(C)c2c1C)c1ccccc1 (stereo not shown) [Example 81, 1-(3-(7-(dimethylamino)-3,4-dimethyl-2H-pyrazolo[3,4-d]pyridazin-2-yl)-4-(3-(methylamino)-1-phenylpropoxy)phenyl)pyrrolidin-2-one] |  |  |
| > 500 | 500 to 5000 | CNCCC(C)Oc1ccccc1-n1nc2c(N(C)C)nnc(C)c2c1C (stereo not shown) [Example 10, N,N,3,4-tetramethyl-2-(2-((4-(methylamino)butan-2-yl)oxy)phenyl)-2H-pyrazolo[3,4-d]pyridazin-7-amine] |  |  |
| > 500 | 500 to 5000 | CNCc1cccc(COc2ccccc2-n2nc3c(N(C)C)nnc(C)c3c2C)c1 [Example 45, N,N,3,4-tetramethyl-2-(2-((3-((methylamino)methyl)benzyl)oxy)phenyl)-2H-pyrazolo[3,4-d]pyridazin-7-amine] |  |  |
| > 500 | 500 to 5000 | CNCCC(Oc1ccccc1-n1nc2c(N(C)CCCO)nnc(C)c2c1C)c1ccccc1 (stereo not shown) [Example 61, 3-((3,4-dimethyl-2-(2-(3-(methylamino)-1-phenylpropoxy)phenyl)-2H-pyrazolo[3,4-d]pyridazin-7-yl)(methyl)amino)propan-1-ol] |  |  |
